Source: US9688653B2, “Ethoxyphenyl thienyl compounds and methods for the treatment of bacterial infections” (Duke University, priority 2013, dated 2017)
Entries after “also recorded” stand apart in the source; their conditions may differ.

Legend:
[1] = Hepatic microsome stability, human; assay type: in vitro ADME; conditions: 37° C.
[2] = system: E. coli UTI89; assay: Human serum sensitization (MTT); assay type: cell-based, Escherichia coli; conditions: 50 μM compound, p=0.0067 versus control; listed as DU011
Method: Human serum sensitization by capsule inhibitor treatment. Overnight cultures of UTI89 were diluted 1:100 and grown with or without 50 μM compound for approximately 1.5 hrs on a shaker at 37° C. Then 25 μL of anonymous, non-identified, sterile filtered pooled human serum (purchased from Equitech Bio) was added per 100 μL of growth media. This was returned to the shaker for another 3 hrs, after which 20 μL of 5 mg/mL MTT (3-(4,5-Dimethylthiazol-2-yl)-2,5-diphenyltetrazolium bromide) was added. MTT is reduced to purple formazan by bacterial reductase enzymes, thus measuring viable bacteria. This was shaken for another 15 min at 37° C. The sample was spun to remove the growth media, followed by two washes with PBS. The formazan crystals were dissolved in 100 μL of DMSO and measured at OD570.

[3] = system: capsule genes of UPEC; assay: Capsule gene transcript level after probe treatment; assay type: cell-based, Escherichia coli; conditions: UPEC treated with the probe
[4] = system: K1 antigen of UTI89; assay: K1 antigen whole-cell dot blot with anti-K1 serum; assay type: cell-based, Escherichia coli; conditions: 100 μM
Method: K1 antigen dot blot. K1 antigen was detected by dot blot assays of culture extracts probed with anti-K1 H46 serum. The assay was performed as previously described. The experiment was repeated twice with similar results, and a representative dot blot is shown.

[5] = system: E. coli strains 536 (K15 serotype), CFT073 (K2 serotype), DS17 (K5 serotype), UTI89 (K1 serotype); assay: Visualization of isolated capsule by Alcian blue staining; assay type: cell-based, Escherichia coli; conditions: strains 536, CFT073, DS17, UTI89; DU011 200 μM
Method: Visualization of capsule using Alcian blue staining. Overnight cultures of clinical E. coli strains were diluted 1:100 in the presence of 1% DMSO or 100 μM DU011. Cultures were grown for ˜6 hrs (OD600=1.2) at 37° C. Samples were centrifuged at 13,200 RPM for 5 min. The medium was removed and the cells were resuspended in 500 μL of Tris-Acetate (pH 5) and shaken for 1 hr at 37° C. Samples were re-centrifuged, and the supernatant was concentrated ˜100 fold in Amicon 3K microconcentrators.
A major consideration was whether the inhibitors of K1 encapsulation were also able to inhibit the production of other important E. coli Group 2 capsule types. […] Capsular material was isolated from strains 536 (K15 serotype), CFT073 (K2 serotype) and DS17 (K5 serotype), and UTI89 (K1 serotype) in the presence and absence of capsule inhibitors. Capsule was isolated from the same amount of bacteria after growth in vehicle or with inhibitor DU011 (200 μM). Isolated material was separated on a polyacrylamide gel and stained with the cationic dye alcian blue.

[6] = system: Methicillin Resistant Staphylococcus aureus (MRSA) Strain USA300; assay: Growth inhibition of MRSA in buffered TSB medium; assay type: cell-based
Method: FIG. 17. Inhibition of Methicillin Resistant Staphylococcus aureus (MRSA) Strain USA300 by ML317 (DU011). USA300 was grown shaking in TSB medium buffered at different pH as indicated in the figure with the addition of different concentrations of the chemical probe ML317. Growth was measured by absorbance readings as indicated.

[7] = system: K1 capsule of UTI89; assay: Secondary assay 3: orcinol assay for released K1 capsule polysaccharide; assay type: cell-based, Escherichia coli
Method: E. Secondary Assay 3: Orcinol Secondary Screening for Inhibitors of Bacterial Capsule Biogenesis.
Purpose: This assay was performed only on the probe candidate. […] The biochemical determination of cell-surface associated capsule was performed using UTI89 or the Delta Region I and Delta Region II capsule mutant bacterial strains.
Purpose: This assay was performed only on the probe candidate. […] The biochemical determination of cell-surface associated capsule was performed using UTI89 or the delta Region I and Region II capsule mutant bacterial strains.
Assay Description: The biochemical measurement of cell-surface associated capsule was performed. UTI89 or capsule mutants were grown in culture tubes with and without the test compound (50 μM). The cultures were centrifuged, and the cell pellets were washed in PBS and resuspended in Tris buffer, pH5. […] Released polysaccharide was harvested by separation from whole bacteria by centrifugation followed by deproteination with phenol/chloroform and precipitation with ethanol. The precipitated material was subjected to acid hydrolysis (pH 2 at 80° C. for 1 hr) and incubated with orcinol, which reacts with periodic intermediates to produce a violet color quantified at OD 570 (3) Inhibitors reducing or abrogating surface encapsulation yielded low orcinol levels similar to the capsule export and synthesis mutants (Region I and II). The positive control drug C7 (100 μM final well concentration) was used in this screen.
Endpoint Read: The samples were read at ambient temperature from the bottom for absorbance at A570 in a BioTek Quantplate reader and the degree of orcinol-reactive material was determined based on the absorbance compared to a wild-type encapsulated strain (UTI89) and a standard curve using purified sialic acid.
Orcinol assay for released capsule material. Orcinol reactivity was used as a biochemical confirmation of altered extracellular capsule after compound treatment. UTI89 or an isogenic capsule mutant was grown in 100 μM of test compound or 1% DMSO. The assay was performed as previously described. The molecule C7 (100 μM final concentration) was used as a positive control. The assay was performed 3 times with replicate samples.

[8] = Hepatic microsome stability, mouse; assay type: in vitro ADME; conditions: 37° C.
[9] = Plasma protein binding, mouse; assay type: in vitro ADME
[10] = system: UPEC; assay: Emergence of spontaneous resistance on exposure to probe; assay type: cell-based, Escherichia coli; conditions: range of concentrations
Text: The probe described herein is entirely novel with the only precedent being the structurally dissimilar molecule 2-(4-phenylphenyl)benzo[g]quinoline-4-carboxylic acid that we previously described in proof-of-concept studies (33). The probe described herein is uniquely poised for development as an infection-specific prevention and treatment therapeutic that enhances natural immune clearance of an infection, namely UTI. […] However, the probe has no effect on in vitro growth and viability of UPEC in the absence of immune factors. […] Furthermore, this probe would be expected to act upon traditional antibiotic resistant strains of E. coli.

Q: Which “Hepatic Microsome Stability, % remaining at 1 hr” value [1] does the source give for CCOc1ccc(-c2cc(NC(=O)c3c(F)cccc3F)c(C(=O)O)s2)cc1 [ML317, 3-(2,6-difluorobenzamido)-5-(4-ethoxyphenyl)thiophene-2-carboxylic acid] here?
A: 89.6 % remaining

Q: And the “Sensitivity of UTI89 to pooled human serum (MTT)” value [2]?
A: further increased serum-mediated killing; also recorded: significantly more sensitive

Q: And the “Transcript for the capsule genes from each of the two major promoters” value [3]?
A: significantly reduced transcript

Q: What about the “Whole-cell anti-K1 dot blot reactivity” value [4] of the same compound?
A: reduces K1 reactive material to levels comparable to those of genetic capsule mutants

Q: What about the “Capsular material, Alcian blue stained gel” value [5] of the same compound?
A: capsule was reduced in each strain

Q: What about the “Mode of action on MRSA (culture of bacteria from the experiments)” value [6] of the same compound?
A: bactericidal

Q: And the “Concentration sufficient to produce inhibition of MRSA” value ([6]; pH 5 and 5.5, TSB medium)?
A: 25 to 50 µM

Q: What about the “Growth of MRSA” value ([6]; pH 7, 100 and 200 μM) of the same compound?
A: inhibited growth

Q: What about the “Bacterial capsule-dependent orcinol stain, % of the control sample” value [7] of the same compound?
A: 21%

Q: What about the “Reduction of orcinol-reactive polysaccharides on surface of bacteria” value ([7]; 100 μM, K1 strain UTI89) of the same compound?
A: ~80%

Q: What about the “Orcinol assay, % of control value” ([7]; synthesized sample, SID 126497311) of the same compound?
A: Orcinol assay 21%

Q: What about the “Hepatic Microsome Stability, % remaining at 1 hr” value [8] of the same compound?
A: 74.3 % remaining

Q: And the “Plasma Protein Binding (% Bound)” value ([9]; 1 μM)?
A: 98.97 % Bound

Q: What about the “Plasma Protein Binding (% Bound)” value ([9]; 10 μM) of the same compound?
A: 99.31 % Bound

Q: What about the “Emergence of spontaneous resistance in the laboratory” value [10] of the same compound?
A: has not resulted in the emergence of spontaneous resistance
